Patent US20200223826A1, “Glucose-6-Phosphate Dehydrogenase (G6PD)-Modulating Agents And Methods Of Treating G6PD Deficiency” (The Board of Trustees of the Leland Stanford Junior …, priority 2017, published 2020)

How the values were obtained:
Canton G6PD [1] = target: T1, Canton G6PD (Homo sapiens, UniProt P11413, R459L); assay: Native gel electrophoresis, dimerization
T1 construct: His (pET-28a) (N, cleaved yes); made in house; host or cells: E. coli C43 (DE3)
Method: 200 ng of recombinant enzymes were incubated with the compound (varying in assays) for 10 minutes at room temperature. To prevent streaking and artifacts in native PAGE gel, the samples in a native state (no boiling of sample and no reducing agent in sample buffer) were electrophoresed by […]. Cross-linking assay was initiated by incubating 500 ng of recombinant enzymes in PBS with 0.1% of glutaraldehyde and different concentrations of NADP^+ (0, 10, 100, 1000 μM) or MgCl2 (0, 1, 10, 100 mM). The mixture was incubated for 10 minutes at room temperature, which was followed by the addition of 100 mM Tris (pH 8.0) at a final concentration to terminate the reaction. The samples were electrophoresed as described above.

Canton G6PD [2] = target: T1, Canton G6PD; assay: In vitro proteolysis assay with chymotrypsin; conditions: in the presence of AG1, 25% in its absence
Method: 200 ng of recombinant enzymes were incubated with 1 μL of 10 ng/μL chymotrypsin for 1 hour at room temperature. 100 μM of the compound was added to some reaction conditions. The following protein level was examined by Western blot.

[3] = target: 6-phosphogluconate dehydrogenase (6PGD) (Homo sapiens, UniProt P52209); assay: Selectivity: dimerization or activity of other NAD/NADP+-dependent enzymes; format: biochemical
Sequence of 6-phosphogluconate dehydrogenase (6PGD) (P52209 whole entry): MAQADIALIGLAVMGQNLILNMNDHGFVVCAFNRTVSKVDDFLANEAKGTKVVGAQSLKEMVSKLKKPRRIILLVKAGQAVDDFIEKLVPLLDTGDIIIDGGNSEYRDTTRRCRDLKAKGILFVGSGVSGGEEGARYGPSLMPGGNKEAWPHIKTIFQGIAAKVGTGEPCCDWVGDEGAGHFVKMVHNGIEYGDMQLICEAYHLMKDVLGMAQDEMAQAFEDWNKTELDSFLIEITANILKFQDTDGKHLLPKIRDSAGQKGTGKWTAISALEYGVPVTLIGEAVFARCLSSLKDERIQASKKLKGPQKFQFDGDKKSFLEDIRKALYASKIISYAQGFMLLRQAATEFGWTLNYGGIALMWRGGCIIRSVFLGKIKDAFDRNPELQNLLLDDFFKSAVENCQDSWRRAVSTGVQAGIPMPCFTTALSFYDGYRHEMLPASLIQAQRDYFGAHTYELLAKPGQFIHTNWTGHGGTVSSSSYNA

zebrafish embryos = assay: NADPH levels in lysates of pooled zebrafish embryos; format: in vivo; conditions: lysates of pooled AG1-treated embryos
Method: Embryos were dechorinated with pronase at 24 hours post fertilization (hpf) and treated with 50 μg/ml of chloroquine and/or AG1 by directly adding the compounds to the well. For ROS measurements, embryos were incubated with compounds for 2 hours, and then the ROS detecting reagent (CM-H2DCFDA) was added at a final concentration of 500 ng/ml to the well for a total treatment time of 5 hours. One embryo was placed to each well of a black, opaque 96-well plate. The florescence was analyzed with excitation/emission at 485/525 nm. After ROS assays, embryos at about 32 hpf were pooled and lysed in buffer containing 50 mM Tris (pH 7.4), 150 mM NaCl, 1 mM EDTA, 0.1% NP-40, and protease inhibitor cocktail, which was followed by three cycles of freeze and thawing in liquid nitrogen. The lysate was centrifuged at 14,000 rpm at 4° C. for 15 minutes. Total protein concentration in the supernatants (total lysate) was determined by Bradford method. 50 μg of total lysate was loaded onto 10% SDS-PAGE gels and the protein level was examined by Western blot using anti-G6PD antibody (Abcam (G6PD: AB87230)). 10 μg of total lysate was used for enzymatic assay. 50 μg of the lysate was used to measure NADPH levels using a NADPH quantification kit (Biovision), according to the manufacturer's instructions.

human erythrocytes [4] = assay: Hemolysis of human erythrocytes under oxidative stressors; format: cell-based
Method: (§1) De-identified blood samples were obtained from the Stanford Blood Center. Erythrocytes were collected by filtering the samples through a cellulose slurry to remove platelets and leukocytes and then washed with saline. G6PD activity was measured (Beutler E. Red cell metabolism: A manual of biochemical methods (3rd edition). Grune & Stratton (1984)). […] A 5% erythrocyte suspension was pre-incubated with 1-5 μM AG1 at 4° C. overnight, which was followed by treatment with (or without) either 1 mM chloroquine (CQ) or 1 mM diamide for 3-4 hours at 37° C. (for hemolysis assay with chloroquine, the mixture was incubated under light). Then centrifugation at 1,000 rpm for 5 minutes was followed. Hemoglobin release in the supernatant was monitored by measuring absorbance at 540 nm. […] After wash, the samples were lysed with 0.1% Triton X-100 (final concentration), and the florescence was analyzed with excitation/emission at 485/525 nm. GSH measurement was determined using a Cayman glutathione assay kit (Cayman Chemicals, 703002). […] The absorbance was read at 412 nm. For storage assay, a 5% erythrocyte suspension was stored at 4° C. with and without 1 μM AG1, and hemolysis and G6PD activity were monitored every week for 28 days to examine whether AG1 improves preservation of erythrocytes over time. Protein leakage was also examined by measuring the absorbance of the supernatant of samples at 280 nm. […]

human erythrocytes [5] = assay: GSH levels in erythrocytes under oxidative stressors; format: cell-based; conditions: drug-induced oxidative stress
Method: as §1

[6] = target: T2, G6PD in human erythrocytes (Homo sapiens, UniProt P11413); assay: G6PD activity in erythrocytes under oxidative stressors; format: cell-based; conditions: drug-induced oxidative stress
T2 construct: host or cells: human erythrocytes
T2 sequence (P11413 2-515 limits assumed): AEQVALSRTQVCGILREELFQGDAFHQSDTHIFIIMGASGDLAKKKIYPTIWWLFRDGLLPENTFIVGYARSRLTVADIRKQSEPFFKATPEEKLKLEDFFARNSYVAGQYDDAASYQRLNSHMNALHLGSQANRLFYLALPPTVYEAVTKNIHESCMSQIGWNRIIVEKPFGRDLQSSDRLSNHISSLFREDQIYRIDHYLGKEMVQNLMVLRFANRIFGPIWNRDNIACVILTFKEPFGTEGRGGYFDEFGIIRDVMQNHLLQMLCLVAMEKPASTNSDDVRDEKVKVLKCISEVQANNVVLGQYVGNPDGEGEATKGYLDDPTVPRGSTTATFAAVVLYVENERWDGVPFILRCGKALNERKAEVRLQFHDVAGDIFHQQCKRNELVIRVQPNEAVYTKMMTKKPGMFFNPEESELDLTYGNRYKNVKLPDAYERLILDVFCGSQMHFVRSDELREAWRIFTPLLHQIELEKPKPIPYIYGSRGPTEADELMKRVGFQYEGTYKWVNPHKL
Method: as §1

[7] = system: band 3 protein in human erythrocytes; assay: Band 3 protein clustering in erythrocytes; format: cell-based; conditions: chloroquine or diamide treatment

T1 sequence (P11413 whole entry R459L): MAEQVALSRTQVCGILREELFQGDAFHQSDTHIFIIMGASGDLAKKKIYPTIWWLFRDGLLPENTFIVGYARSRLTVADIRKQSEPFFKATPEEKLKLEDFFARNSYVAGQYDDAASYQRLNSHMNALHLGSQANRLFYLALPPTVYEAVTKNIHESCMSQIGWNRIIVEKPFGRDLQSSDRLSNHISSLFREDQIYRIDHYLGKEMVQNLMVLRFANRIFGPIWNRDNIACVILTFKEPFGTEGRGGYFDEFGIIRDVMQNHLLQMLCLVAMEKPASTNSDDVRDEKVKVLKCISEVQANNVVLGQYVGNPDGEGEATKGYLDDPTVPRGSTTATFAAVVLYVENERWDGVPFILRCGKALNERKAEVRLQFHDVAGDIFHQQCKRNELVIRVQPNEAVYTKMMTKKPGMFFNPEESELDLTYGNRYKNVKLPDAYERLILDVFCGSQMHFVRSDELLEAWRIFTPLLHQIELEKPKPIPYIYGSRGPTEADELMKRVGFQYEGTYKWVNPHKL

## SCCNCCc1c[nH]c2ccccc12 [AG1, 2-[2-(1H-indol-3-yl)ethylamino]ethanethiol]
Canton G6PD [1]
  formation of active dimers: promoted formation of active dimers
Canton G6PD [2]
  protein remaining after proteolysis: 50%
[3]
  effect on dimerization or activity: no effect
Zebrafish embryos
  NADPH levels: significant increase
Human erythrocytes [4]; AG1 1 μM
  chloroquine-induced hemolysis: rescued
Human erythrocytes [4]; AG1 5 μM, 5% erythrocyte suspension, 1 mM chloroquine or diamide
  extent of hemolysis: reduces the extent of hemolysis
Human erythrocytes [5]
  GSH levels: increased
[6]
  G6PD activity: increased
[7]
  band 3 protein aggregation: alleviated
